# Data: article PMC8144573, “Distinct EH domains of the endocytic TPLATE complex confer lipid and protein binding” (Nature Communications, 2021)
# What was measured:
# EH1.1 = experiment: Peptidome profiling by mass spectrometry, EH1.1; type: binding, Arabidopsis thaliana; parameters: scale not given here
# Experimental: (§1) Arabidopsis (Col-0) was grown vertically on 1/2 MS media for 7 days on a nylon mesh, harvested and flash-frozen in liquid nitrogen. Frozen seedlings (3 g/experiment) were ground using mortar and pestle. Proteins were extracted and denatured in 50 mM NaHCO3, 8 M Urea and sonicated three times for 1 min. Protein extracts were rotated for 30 min at room temperature after which the extract was subsequently centrifuged twice at 20,000 × g for 20 min. DTT was added to the supernatant, was added to a final concentration of 5 mM and incubated at 55 °C for 30 min. Proteins were alkylated by the addition of 100 mM iodoacetamide and incubated for 15 min in the dark after which the mix was subsequently diluted with 50 mM NaHCO3 to a final concentration of 2 M urea. Trypsin was added in a ratio of 1:75, protein:trypsin (Sequencing Grade Modified Trypsin, V5117, Promega) and incubated overnight at 37 °C on a rotating wheel.
# (§2) Trypsin was removed using Sep-Pak Vac 3cc columns (500 mg, WAT036815, Waters). The extract was acidified using 1% TFA for 15 min on ice and cleared by centrifugation at 1780 × g for 15 min at room temperature. The cleared extract was split into four and applied on an equilibrated Sep-Pak columns (Waters, WAT036815, Lot # 010437235B). The column was pre-wet using 5 ml of 100% MeCN followed by sequential washing with 1 ml, 3 ml, and 6 ml of 0.1% TFA. After application of the extract, the column was washed sequentially with 1 ml, 5 ml, and 6 ml of 0.1% TFA followed by a 2 ml wash with 0.1% TFA, 5% acetonitrile. The peptides were eluted using three times 2 ml 0.1% TFA, 40% acetonitrile. The eluate was lyophilized for two days to remove TFA. 200 µg EH domain or his-GFP were coupled, in triplicate, during one hour to 25 µl Ni Sepharose 6 Fast Flow beads (GE Healthcare, 17-5318-01). Unbound protein was removed by three washing steps of 1 ml each. The lyophilized peptides were solubilized in 20 mM HEPES, 150 mM NaCl buffer, 0.2 mM CaCl2, divided and added to the coupled beads. The peptidome was incubated with the proteins for 4 h after which the beads were washed three times with 1 ml of the binding buffer. Peptides were eluted by the addition of 80 µl 20 mM HEPES pH 8, 8 M Urea. The supernatant was removed from the beads and desalted with Monospin C18 columns (Agilent Technologies, A57003100) after which they were freeze dried.
# (§3) Peptides were redissolved in 20 µl loading solvent A (0.1% TFA in water/acetonitrile (98:2, v/v)) of which 5 µl was injected for LC-MS/MS analysis on an Ultimate 3000 RSLC nano LC (Thermo Fisher Scientific, Bremen, Germany) in-line connected to a Q Exactive mass spectrometer (Thermo Fisher Scientific). The peptides were first loaded on a trapping column made in-house (100 μm internal diameter (I.D.) × 20 mm, 5 μm beads C18 Reprosil-HD, Dr. Maisch, Ammerbuch-Entringen, Germany) and after flushing from the trapping column the peptides were separated on a 50 cm µPAC™ column with C18-endcapped functionality (Pharmafluidics, Belgium) kept at a constant temperature of 35 °C. Peptides were eluted by a linear gradient from 98% solvent A′ (0.1% formic acid in water) to 55% solvent B′ (0.1% formic acid in water/acetonitrile, 20/80 (v/v)) in 30 min at a flow rate of 300 nl/min, followed by a 5 min wash reaching 99% solvent B’. The mass spectrometer was operated in data-dependent, positive ionization mode, automatically switching between MS and MS/MS acquisition for the 5 most abundant peaks in a given MS spectrum. The source voltage was 2.2 kV, and the capillary temperature was 250 °C. […]
# EH1.2 = experiment: Peptidome profiling by mass spectrometry, EH1.2; type: binding, Arabidopsis thaliana
# Experimental: as §1, §2, §3
# EH1.2+EH1.1 = experiment: Peptidome profiling by mass spectrometry, EH1.2+EH1.1 vs GFP; type: binding, Arabidopsis thaliana
# Source text: Supplement 41467_2021_23314_MOESM6_ESM.xlsx, sheet "Supplementary Data 3" | column: EH1.2+EH1.1 vs GFP
# SCAMP5 = experiment: ES9 treatment, SCAMP5 localization; type: cell-based, Arabidopsis; details: 10 µM ES9, 5 min pretreatment then 30 min co-treatment with 2 µM FM4-64
# Experimental: For ES9 treatment plants were pretreated for 5 min with 10 µM ES9, a generous gift of the lab of Jenny Russinova (PSB, VIB/Ugent, BE), in 1/2 MS media followed by 30 min co-treatment of ES9 with 2 µM FM4-64.
# [1] = target: 15N-labeled EH1.1 of AtEH1/Pan1 (amino acids 1-107) for NMR titration (Arabidopsis thaliana); experiment: NMR titration; 1H,15N HSQC of 15N-labeled EH domain with successive addition of unlabeled peptide up to 1:4 excess; 20 mM MES 6.5, 150 mM NaCl, 2 mM CaCl2; chemical shift perturbations fitted to a binding isotherm; apparent
# 15N-labeled EH1.1 of AtEH1/Pan1 (amino acids 1-107) for NMR titration (Arabidopsis thaliana), sequence (main, as listed by the source): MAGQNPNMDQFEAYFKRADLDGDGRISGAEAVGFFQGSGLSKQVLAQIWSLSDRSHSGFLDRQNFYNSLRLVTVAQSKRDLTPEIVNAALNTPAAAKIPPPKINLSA
# [2] = target: 15N-labeled EH1.2 of AtEH1/Pan1 (amino acids 346-449) for NMR titration (Arabidopsis thaliana); experiment: as above
# 15N-labeled EH1.2 of AtEH1/Pan1 (amino acids 346-449) for NMR titration (Arabidopsis thaliana), sequence (main, as listed by the source): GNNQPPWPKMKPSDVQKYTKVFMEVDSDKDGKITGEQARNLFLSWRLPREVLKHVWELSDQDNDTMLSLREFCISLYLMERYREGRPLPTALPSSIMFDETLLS
# [3] = target: First EH domain of AtEH1/Pan1 (EH1.1), amino acids 1-107, His-tagged (Arabidopsis thaliana); experiment: BLI; Octet RED96; His-tagged EH domain on Ni-NTA biosensors, covalently coupled with EDC/NHS; peptide as analyte in increasing concentrations; 20 mM HEPES pH 7.4, 150 mM NaCl, 2 mM CaCl2; 25 °C; steady state, one-site total binding model
molecule,measurement,setting,value
DLTPEIVNAALNTPAAAK,Difference,EH1.1; EH1.1 vs EH1.2,9.679
same,Difference,EH1.1; EH1.1 vs EH1.2+GFP,11.2082
same,Difference,EH1.1; EH1.1 vs GFP,12.7377
same,Difference,EH1.2; EH1.2 vs EH1.1+GFP,-3.31
same,Difference,EH1.2; EH1.2 vs GFP,3.059
same,Difference,EH1.2+EH1.1,7.898
O=[N+]([O-])c1ccc(NS(=O)(=O)c2ccc(Br)s2)cc1 [ES-9],effect on SCAMP5 localization (in words),SCAMP5,caused SCAMP5 accumulation at the PM
VFMEVDSDKDGKITGEQAR,Difference,EH1.1; EH1.1 vs EH1.2,-15.7597
same,Difference,EH1.1; EH1.1 vs EH1.2+GFP,-8.131
same,Difference,EH1.1; EH1.1 vs GFP,-0.5027
same,Difference,EH1.2; EH1.2 vs EH1.1+GFP,15.5083
same,Difference,EH1.2; EH1.2 vs GFP,15.257
same,Difference,EH1.2+EH1.1,7.377
YHASAIHVPGPEVAR,Difference,EH1.1; EH1.1 vs EH1.2,0.9954
same,Difference,EH1.1; EH1.1 vs EH1.2+GFP,4.577
same,Difference,EH1.1; EH1.1 vs GFP,8.159
same,Difference,EH1.2; EH1.2 vs EH1.1+GFP,3.084
same,Difference,EH1.2; EH1.2 vs GFP,7.163
same,Difference,EH1.2+EH1.1,7.661
DPNPFDEDEEIVNPFSK (modifications not checked),Kd,[1],33 µM
same,Kd,[2],190 µM
same,Kd,[3],59 µM
